In patent US20060276464A1, “Diarylsulfone sulfonamides and use thereof” (Wyeth, priority 2005, published 2006) one finds IC50, fold induction and EC50 data, which are given here for 11 compounds.

Test [1] concerns the target T1, SFRP-1 (Homo sapiens, UniProt Q8N474).
T1 sequence (Q8N474 32-314): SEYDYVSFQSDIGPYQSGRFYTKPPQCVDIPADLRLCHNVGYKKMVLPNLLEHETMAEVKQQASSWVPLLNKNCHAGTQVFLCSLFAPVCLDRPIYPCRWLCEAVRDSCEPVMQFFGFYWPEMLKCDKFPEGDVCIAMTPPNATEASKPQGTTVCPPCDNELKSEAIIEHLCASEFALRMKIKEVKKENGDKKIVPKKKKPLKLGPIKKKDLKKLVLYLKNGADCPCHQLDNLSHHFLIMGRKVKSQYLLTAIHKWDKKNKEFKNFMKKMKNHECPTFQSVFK
The experiment in a line: Fluorescence polarization binding assay (competitive displacement of a probe compound from SFRP-1).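 Also: test compound competes with a fluorescent probe held by SFRP-1, seen as a drop in probe anisotropy after incubation in darkness, with anisotropy as function of rising compound dose.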 The note with it: fluorescence anisotropy, 45 nM SFRP-1, 20 nM probe.

Test [2] concerns the target T1, SFRP-1. The experiment in a line: Cell-based assay for in vitro measurement of SFRP-1/SARP2 antagonist activity (U2OS cells co-transfected with 16x TCF-tk-Luciferase reporter, Wnt and hSFRP-1).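 As to all read-outs here: U2OS cells co-transfected with a TCF-tk luciferase reporter, a Wnt vector, hSFRP-1 or empty vector and CMV-βgal, luciferase luminescence read in cell lysates alongside βgal activity.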 The note with it: for fold induction at 10 µM: U2OS, read-out: Fold Induction with SFRP-1, U2OS cells, single dose 10 μM, luciferase reporter, fold induction over SFRP-1 control.

The structures appear in SMILES notation.

Regarding `O=C(NCCNS(=O)(=O)c1cc(S(=O)(=O)c2ccccc2)ccc1C(F)(F)F)c1ccccc1` [Example 770, N-[2-({[5-(Phenylsulfonyl)-2-(trifluoromethyl)phenyl]sulfonyl}amino)ethyl]benzamide], the IC50 in test [1] was determined as 2700 nM. Besides, the fold induction at 10 µM in test [2] turned out to be 1.7.
For the compound `O=S(=O)(NCCc1ccncc1)c1cc(S(=O)(=O)c2ccccc2)ccc1C(F)(F)F` [Example 771, 5-(phenylsulfonyl)-N-(2-pyridin-4-ylethyl)-2-(trifluoromethyl)benzenesulfonamide], the IC50 in test [1] came out at 80 nM. Also, in test [2], it took 733 nM to reach a half-maximal effect (EC50) and the fold induction at 10 µM turned out to be 3.5.
On to `O=S(=O)(NC1Cc2ccccc2C1)c1cc(S(=O)(=O)c2ccccc2)ccc1C(F)(F)F` [Example 772, N-(2,3-dihydro-1H-inden-2-yl)-5-(phenylsulfonyl)-2-(trifluoromethyl)benzenesulfonamide], for which the IC50 in test [1] was found to be 80 nM. The fold induction at 10 µM in test [2] was 1.2.
`O=S(=O)(NC[C@H](O)c1ccccc1)c1cc(S(=O)(=O)c2ccccc2)ccc1C(F)(F)F` [Example 773, N-[(2R)-2-hydroxy-2-phenylethyl]-5-(phenylsulfonyl)-2-(trifluoromethyl)benzenesulfonamide] had an IC50 in test [1] of 1900 nM. In addition, in test [2], the EC50 came to 1300 nM and the fold induction at 10 µM is 1.2.
The corresponding values for `O=S(=O)(NC[C@@H](O)c1ccccc1)c1cc(S(=O)(=O)c2ccccc2)ccc1C(F)(F)F` [Example 774, N-[(2S)-2-hydroxy-2-phenylethyl]-5-(phenylsulfonyl)-2-(trifluoromethyl)benzenesulfonamide] are 60 nM, 973 nM and 1.3.
With `O=C(NCCNS(=O)(=O)c1cc(S(=O)(=O)c2ccccc2)ccc1C(F)(F)F)c1ccncc1` [Example 783, N-[2-({[5-(Phenylsulfonyl)-2-(trifluoromethyl)phenyl]sulfonyl}amino)ethyl]isonicotinamide], in test [1], the IC50 was found to be 700 nM. In test [2], the fold induction at 10 µM was 3.2.
Taken in the same sequence, the figures for `CC[C@H](CO)NS(=O)(=O)c1cc(S(=O)(=O)c2ccccc2)ccc1C(F)(F)F` [Example 784, N-[(1R)-1-(hydroxymethyl)propyl]-5-(phenylsulfonyl)-2-(trifluoromethyl)benzenesulfonamide] were 3000 nM and 3.
The corresponding values for `COc1cccc(S(=O)(=O)c2ccc(C(F)(F)F)c(S(=O)(=O)NCCO)c2)c1` [Example 785, N-(2-hydroxyethyl)-5-[(3-methoxyphenyl)sulfonyl]-2-(trifluoromethyl)benzenesulfonamide] are 1100 nM and 2.9.
Taken in the same sequence, the figures for `CC(C)(C)OC(=O)N1CCC[C@H](NS(=O)(=O)c2cc(S(=O)(=O)c3ccccc3)ccc2C(F)(F)F)C1` [Example 786, tert-butyl(3S)-3-({[5-(phenylsulfonyl)-2-(trifluoromethyl)phenyl]sulfonyl}amino)piperidine-1-carboxylate] were 4400 nM and 1.7.
`CC(C)(C)OC(=O)N1CCC[C@@H](NS(=O)(=O)c2cc(S(=O)(=O)c3ccccc3)ccc2C(F)(F)F)C1` [Example 787, tert-butyl(3R)-3-({[5-(phenylsulfonyl)-2-(trifluoromethyl)phenyl]sulfonyl}amino)piperidine-1-carboxylate]: the IC50 in test [1] is 300 nM. Also, in test [2], the 50% effective concentration (EC50) came to 896 nM and the fold induction at 10 µM is 3.7.
In turn, `O=S(=O)(N[C@H]1CCCNC1)c1cc(S(=O)(=O)c2ccccc2)ccc1C(F)(F)F` [Example 790, 5-(phenylsulfonyl)-N-[(3S)-piperidin-3-yl]-2-(trifluoromethyl)benzenesulfonamide] yielded an IC50 in test [1] of 2000 nM. In addition, in test [2], the fold induction at 10 µM was determined as 3.1.
